Test results reported in patent US20260325504A1, “Genetically Engineered Human Pituitary Corticotroph Tumor Organoids Exhibit Divergent Responses to Selective Glucocorticoid Receptor Modulators” (Corcept Therapeutics Incorporated, priority 2022, published 2026).
Entries after “also recorded” stand apart in the source; their conditions may differ.

Tests used:
Assay type in all cases: cell-based, human
[1] = system: SSTR2; assay: Differential expression of SSTR2 (qRT-PCR) in iPSC generated pituitary organoids; conditions: for SSTR2 induction relative to SSTR5: PitNET organoids, summary; for induction in SSTR2 expression, mifepristone compared to relacorilant / expression of SSTR2: iPSC organoids; for induction in SSTR2 expression, mifepristone compared to relacorilant: 500 nM each, FIG. 5A; for expression of SSTR2: 500 nM, vs vehicle
Method: Sonic Hedgehog (SHH) was withdrawn from the organoid growth media 16 hours prior to treatment. The experimental treatment groups included: vehicle (Veh), mifepristone (500 nM, Selleckchem S2606), GANT61 (5 μM, Stemcell Technologies 73692), ketoconazole (Keto, 10 μM, Selleckchem S1353), pasireotide (Pas, 100 nM, Target Mol TP2207-SB001), octreotide (Oct, 100 nM, Selleckchem P1017), mifepristone plus GANT61, mifepristone plus Keto, mifepristone plus Pas, relacorilant (500 nM, Corcept Therapeutics CORT125134), relacorilant plus Pas, relacorilant plus Oct, or dexamethasone (Dexa, 100 nM, SIGMA S4902). In the combination treatments, cultures were pretreated with the GANT61, Keto, Pas or Oct for 2 hours prior to treatment with mifepristone or Rela. PitNET tissue derived organoids hPITO36, hPITO37, hPITO38, hPITO39, and hPITO40 were treated with the following experimental conditions: Vehicle (1), pasireotide (2), relacorilant (3), relacorilant & pasireotide (4), mifepristone (5), mifepristone & pasireotide (6). The IC50 values used for each hPITO line for each drug were determined based on dose responses (FIG. 12). All organoid cultures were treated for 48 hours prior to analysis.
RNA was extracted from PitNET tissue or iPSC generated organoids using TRI Reagent® (Molecular Research Center Inc TR118) and the High Capacity cDNA Reverse Transcription Kit (Applied Biosystems, Foster City, CA) was used for cDNA synthesis of RNA following the recommended protocol. For each sample, 60 ng RNA was reverse transcribed to yield approximately […] total cDNA that was then used for the qRT-PCR. Pre-designed real-time polymerase chain reaction assays were purchased for the following genes: TPit (Thermo Fisher Scientific 4331182 Hs00193027), SF1 (Thermo Fisher Scientific 4331182 Hs00610436), SSTR2 (Thermo Fisher Scientific 4331182 Hs00265624_s1), SSTR5 (Thermo Fisher Scientific 4331182 Hs00990407_s1), POMC (Thermo Fisher Scientific 4331182 Hs01596743_ml), hPRT (Thermo Fisher Scientific 4331182 Hs02800695_ml), and FKBP5 (Thermo Fisher Scientific 4331182 Hs01561006_m1). Polymerase chain reaction amplifications were performed in a total volume of 20 μL containing 20× TaqMan Expression Assay primers, 2× TaqMan Universal Master Mix (Applied Biosystems, TaqMan® Gene Expression Systems), and cDNA template. Each polymerase chain reaction amplification was performed in triplicate wells in a StepOne Real-Time PCR System (Applied Biosystems) by using the following conditions: 500C 2 minutes, 95° C. 10 minutes, 95° C. 15 seconds (denature) and 60° C. 1 minute (anneal/extend) for 40 cycles. Fold change was calculated as the following: (Ct-Ct high)=n target, 2ntarget/2nHPRT=fold change where Ct=threshold cycle. The results were expressed as average fold change in or differential gene expression relative to control, with HPRT used as an internal control according to Livak and Schmittgen.

[2] = system: iPSC^ctrl organoids; assay: Nuclear morphometric analysis (nuclear irregularity index), iPSCctrl organoids; conditions: 500 nM, 48 h
Method: Nuclear Morphometric Analysis (NMA) using treated organoids was performed based on a published protocol that measures cell viability based on the changes in nuclear morphology of the cells using nuclear stain Hoechst or DAPI [31]. Images of organoid nuclei were analyzed using the ImageJ Nuclear Irregularity Index (NII) plugin for key parameters that included cell area, radius ratio, area box, aspect, and roundness. Using the published spreadsheet template, the NII of each cell was calculated with the following formula: NII=Aspect−Area Box+Radius Ratio+Roundness. The area vs NII of vehicle-treated cells were plotted as a scatter plot using the template and considered as the normal cell nuclei. […] The percentage of cells in each NII classification category were calculated and plotted as a histogram using GraphPad Prism.
(§1) Sonic Hedgehog (SHH) was withdrawn from the organoid growth media 16 hours prior to treatment. […] The IC50 values used for each hPITO line for each drug were determined based on dose responses (FIG. 12). […]

[3] = system: ACTH; assay: Spectral flow cytometry, ACTH positive cells, hPITOs
Source text: 1.3 Generation and Culture of Human PitNET Tissue Organoids (hPITOs)
Patients undergoing planned transsphenoidal surgery for PitNETs were identified in the outpatient neuroendocrinology and neurosurgery clinics and collected by the St. Joseph's Hospital and Barrow Neurological Institute Biobank under the collection protocol PHXA-05TS038, and outcomes data protocol PHXA-0004-72-29 with approval of the Institutional Review Board (IRB) and patient consent. De-identified samples were shipped in collection and transport media (Table 3) to the Zavros laboratory (University of Arizona) for processing within 24 hours of collection. Resected PitNET tissues were washed with Dulbeccos Phosphate Buffered Saline (DPBS) supplemented with 1× Penicillin/Streptomycin, 1× Kanamycin and 1× Amphotericin/Gentamycin, minced into smaller pieces, and incubated with digestion buffer (Dulbecco's Modified Eagle Medium/Nutrient Mixture F-12 (DMEM/F12) supplemented with 0.4% Collagenase 2, 0.1% Hyaluronic Acid, 0.03% Trypsin). The tissue was incubated with Accutase (Thermo Fisher Scientific) for a further 5 minutes, and the cells were pelleted and washed with DPBS supplemented with antibiotics. Dissociated cells were then seeded as Matrigel™ domes in culture dishes and overlaid with growth media (Table 4). Media was replaced every 3 days and organoids were harvested for downstream experiments or passaged after 15 days of culture (FIG. 1B).
as §1

SMILES | SSTR2 induction relative to SSTR5 [1] | SSTR2 induction relative to SSTR5 ([1]; listed as Mifepristone) | induction in SSTR2 expression, mifepristone compared to relacorilant ([1]; 48 h) | induction in SSTR2 expression, mifepristone compared to relacorilant ([1]; 48 h, listed as Mifepristone) | expression of SSTR2 ([1]; 48 h) | differential expression of SSTR2 ([1]; iPSCctrl organoids, compound alone, 48 h, FIG. 5C, D) | apoptotic cells by nuclear irregularity index (NII) [2] | number of ACTH expressing cells / ACTH ([3]; hPITO, 48 h, FIGS. 9I, J) | sensitization of organoids to pasireotide ([3]; CD PitNET tissue derived organoids)
CC#C[C@]1(O)CC[C@H]2[C@@H]3CCC4=CC(=O)CCC4=C3[C@@H](c3ccc(N(C)C)cc3)C[C@@]21C [mifepristone, 11β-(4-dimethylaminophenyl)-17ß-hydroxy-17α-(1-propynyl)-estra-4,9-dien-3-one] | predominantly induced SSTR2 expression; also recorded: significantly greater induction in SSTR2 than SSTR5 | induces SSTR2 with greater magnitude compared to SSTR5 | preferentially induced the expression of SSTR2 | significantly greater induction in SSTR2 expression when compared to relacorilant | significant induction; also recorded: significantly induced the expression | significantly induced | not observed; also recorded: induces apoptosis in neither the tumor organoid iPSC^USP48MV nor the control organoid iPSC^ctrl | significantly increased the number of ACTH expressing cells | 
Cn1cc(S(=O)(=O)N2CCC3=Cc4c(cnn4-c4ccc(F)cc4)C[C@]3(C(=O)c3cc(C(F)(F)F)ccn3)C2)cn1 [relacorilant, (R)-(1-(4-fluorophenyl)-6-((1-methyl-1H-pyrazol-4-yl)sulfonyl)-4,4a,5,6,7,8-hexahydro-1H-pyrazolo[3,4-g]isoquinolin-4a-yl) (4-(trifluoromethyl)pyridin-2-yl) methanone] |  |  |  |  | significant induction; also recorded: significantly induced the expression |  | not observed |  | sensitizes CD PitNET tissue derived organoids to pasireotide; also recorded: sensitized organoid tumor cells to suppression of ACTH by pasireotide
